What all share (assay type): cell-based
One assay has as its system MCF-7 cells. Description: alamarBlue cell viability assay, MCF-7. As to conditions: Homo sapiens, MCF7, 72 h, read-out: MCF-7 IC50 ± SEM. From the text:
(§1) Cell viability and proliferation assays were used to evaluate the in vitro cytotoxicity of all synthesised compounds in a variety of different cancer cell lines using the alamarBlue® viability assay and the results are presented in Table 1 and Table 2. The sensitivity of cancer cells to drugs can often be compromised by PIK3CA, Ras and BRAF mutations. To determine whether such mutations are critical to the efficacy of our new compounds we tested them in a range of cancerous cell lines expressing different mutations. Firstly, we used the HL-60 (human promyelocytic leukaemia, NRas mutated) cell line for general cytotoxicity screening of all compounds. […] Lastly, toxicity against MCF-10A, which is a non-tumorigenic epithelial cell line, was also assessed for one of the most promising compounds (4). The graphs representing the viability results with the HL-60, MCF-7, HeLa, HCT-116, and HKH-2 cancer cell lines for compound 1 and derivatives 2, 3, and 4 are shown in Figures S7–S10 (ESI).
(§2) Cells were counted and seeded in 96-well plates at a density of 2 × 10^5 cells/mL for HL-60, 2.5 × 10^4 cells/mL for MCF-7, MCF10A and HeLa, 1 × 10^5 cells/mL for HCT116 and HKH-2, all of them in their respective media. The 96-well plates were then treated with a 1:100 dilution of stock concentrations of drugs or EtOH (1% v/v)/DMSO (0.1% v/v) as vehicle control in triplicate. Three blank wells containing 200 µL RPMI with no cells were also set-up as blanks. After a 72 h incubation, 20 µL of alamarBlue was added to each well. The plates were incubated in darkness at 37 °C for 4–5 h using a Molecular Devices microplate reader, the fluorescence (F) was then read at an excitation wavelength of 544 nm and an emission wavelength of 590 nm. Cell viability was then determined by subtracting the mean blank fluorescence (Fb) from the treated sample fluorescence (Fs) and expressing this as a percentage of the fluorescence of the blanked vehicle control (Fc). […] The results were then plotted as a nonlinear regression, sigmoidal dose-response curves on Prism, from which the IC50 value for each drug was determined.
(§3) The MCF-7 (human breast tumour) cell line was obtained from Prof. Mary Meegan, School of Pharmacy, TCD. It was maintained in Roswell Park Memorial Institute (RPMI) 1640 medium with stable glutamate (GlutaMax I) supplemented with 10% (v/v) fetal bovine serum (FBS), 1% (v/v) penicillin/ streptomycin (pen-strep) and 2 mM L-glutamine.
(§4) The HeLa (human epitheloid cervix carcinoma) cell line was obtained from Prof. Thorfinnur Gunnlaugsson, School of Chemistry TCD. It was maintainedin Dulbecco's Modified Eagle's Medium (DMEM) supplemented with 10% (v/v) fetal bovine serum (FBS) and 1%(v/v) penicillin/ streptomycin (pen-strep).
(§5) The HCT116and HKH-2 (human colon cancer cells) cell lines were obtained from Prof. James Murray, School of Biochemistry and Immunology TCD. They were maintainedin Dulbecco's Modified Eagle's Medium (DMEM) supplemented with 10% (v/v) fetal bovine serum (FBS), 1% (v/v) penicillin/ streptomycin (pen-strep), 1% (v/v) sodium pyruvate (NaPyr), 1% (v/v) L-glutamine (L-Glu) and, only for HKH-2, 0.6 mg/mL geneticine (G418).
MCF-10A (human breast epithelial) cell line was obtained from Prof. Mary Meegan, School of Pharmacy, TCD. It was cultured in Dulbecco’s Modified Eagle Medium/Nutrient Mixture F-12 (DMEM/F12; Gibco) supplemented with 5% horse serum (Invitrogen), 20 ng/mL epidermal growth factor (Merck Millipore), 0.5 μg/mL hydrocortisone (Sigma), 100 ng/mL cholera toxin (Sigma), 10 μg/mL insulin (Sigma), and penicillin/streptomycin (1% v/v) (Gibco).
4.4. AlamarBlue ® Cell Viability Assay
Cells were counted and seeded in 96 well plates at a density of 2 × 10^5 cells/mL for HL-60, 2.5× 10^4 cells/mL for MCF-7, MCF10A and HeLa, 1 × 10^5 cells/mL for HCT116 and HKH-2, all of them in their respective media. The 96 well plates were then treated with a 1:100 dilution of stock concentrations of drugs or EtOH (1% v/v)/DMSO (0.1% v/v) as vehicle control in triplicate. […]
In general terms: Alamar Blue is a resazurin reagent that responds to reducing activity.

The subject of the next assay is HKH-2 cells. Description: alamarBlue cell viability assay, HKH-2. As to conditions: Homo sapiens, 72 h, mutated KRas disrupted, read-out: HKH-2 IC50 ± SEM.
Text: as §1, §2, §3, §4, §5
(§6) MCF-10A (human breast epithelial) cell line was obtained from Prof. Mary Meegan, School of Pharmacy, TCD. […]
(§7) Cells were counted and seeded in 96 well plates at a density of 2 × 10^5 cells/mL for HL-60, 2.5× 10^4 cells/mL for MCF-7, MCF10A and HeLa, 1 × 10^5 cells/mL for HCT116 and HKH-2, all of them in their respective media. […]

The next assay has as its system HCT116 cells. As to the kind of experiment: alamarBlue cell viability assay, HCT116. The note with it: Homo sapiens, HCT-116, 72 h, KRas mutant, read-out: HCT116 IC50 ± SEM.
Text: as §1, §2, §3, §4, §5, §6, §7

Broadly, the IC50 is the concentration that inhibits the measured activity by half.

Take `Cl.Cl.N=C(N)Nc1ccc(Oc2cccc(NC(=N)Nc3ccc(Cl)c(C(F)(F)F)c3)c2)cn1` [Compound 2, 1-(4-Chloro-3-(trifluoromethyl)phenyl)-3-(3-((6-guanidinopyridin-3-yl)oxy)phenyl) guanidine dihydrochloride]: the values for the half-inhibitory concentration (IC50) in the assay with MCF-7 cells, with HKH-2 cells and in the assay with HCT116 cells were 4.91 ± 1.04 µM, 8.09 ± 0.78 µM and 7.29 ± 0.53 µM, respectively.
Regarding `Cl.N=C(N)Nc1ccc(Oc2cccc(Nc3ccc(Cl)c(C(F)(F)F)c3)c2)cn1` [Compound 4, 1-(5-(3-((4-Chloro-3-(trifluoromethyl)phenyl)amino)phenoxy)pyridin-2-yl)guanidine hydrochloride], the figures for the IC50 in the assay on MCF-7 cells, in the assay on HKH-2 cells and in the assay on HCT116 cells were 3.73 ± 0.35 µM, 2.88 ± 0.15 µM and 4.59 ± 0.4 µM, respectively.
For `Cl.N=C(N)Nc1ccc(Oc2cccc(Nc3ccc(Cl)c(C(F)(F)F)c3)c2)cc1` [Compound 3, 1-(4-(3-((4-Chloro-3-(trifluoromethyl)phenyl)amino)phenoxy)phenyl)guanidine hydrochloride], in that order: 2.02 ± 0.27 µM, 10.3 ± 0.74 µM and 15.9 ± 2.73 µM.

For the origin of these results see publication PMC7767381, “Exploring the Anti-Cancer Mechanism of Novel 3,4′-Substituted Diaryl Guanidinium Derivatives” (Pharmaceuticals, 2020).
